Laboratory results from ChEMBL document CHEMBL1201862, “PubChem BioAssay data set” (2004).
Active and inactive are the calls of the source.

Columns and labels:
[1] = system: Streptococcus sp. 'group A'; experiment: Streptococcus pyogenes SK(-)GAS viability under kanamycin – luminescence, BacTiterGlo, confirmation, counter-screen for streptokinase expression inhibitor project, dose response (AID 1900); type: functional, organism-based
[2] = DRD fibroblast viability loss – cell-based, non-viral oncogenic, luminescence, dose response (AID 1934); type: functional; conditions: Homo sapiens
[3] = NIH-3T3 fibroblast cytotoxicity, dose response, cytotoxicity control, cell-based, fluorescence, Alamar Blue, secondary assay (AID 2327); type: functional;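 also: NIH-3T3 mouse fibroblasts cultured with fluconazole at 8 µg/mL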
Aminopeptidase N = target: T1, Aminopeptidase N (Plasmodium falciparum FcB1/Columbia, UniProt O96935); experiment: malaria alanyl aminopeptidase activity blockers – biochemical, fluorogenic H-Leu-NHMec substrate, 1536-well (AID 1445); set-up: species or system Plasmodium falciparum 3D7, 3D7
T1 sequence (O96935 whole entry): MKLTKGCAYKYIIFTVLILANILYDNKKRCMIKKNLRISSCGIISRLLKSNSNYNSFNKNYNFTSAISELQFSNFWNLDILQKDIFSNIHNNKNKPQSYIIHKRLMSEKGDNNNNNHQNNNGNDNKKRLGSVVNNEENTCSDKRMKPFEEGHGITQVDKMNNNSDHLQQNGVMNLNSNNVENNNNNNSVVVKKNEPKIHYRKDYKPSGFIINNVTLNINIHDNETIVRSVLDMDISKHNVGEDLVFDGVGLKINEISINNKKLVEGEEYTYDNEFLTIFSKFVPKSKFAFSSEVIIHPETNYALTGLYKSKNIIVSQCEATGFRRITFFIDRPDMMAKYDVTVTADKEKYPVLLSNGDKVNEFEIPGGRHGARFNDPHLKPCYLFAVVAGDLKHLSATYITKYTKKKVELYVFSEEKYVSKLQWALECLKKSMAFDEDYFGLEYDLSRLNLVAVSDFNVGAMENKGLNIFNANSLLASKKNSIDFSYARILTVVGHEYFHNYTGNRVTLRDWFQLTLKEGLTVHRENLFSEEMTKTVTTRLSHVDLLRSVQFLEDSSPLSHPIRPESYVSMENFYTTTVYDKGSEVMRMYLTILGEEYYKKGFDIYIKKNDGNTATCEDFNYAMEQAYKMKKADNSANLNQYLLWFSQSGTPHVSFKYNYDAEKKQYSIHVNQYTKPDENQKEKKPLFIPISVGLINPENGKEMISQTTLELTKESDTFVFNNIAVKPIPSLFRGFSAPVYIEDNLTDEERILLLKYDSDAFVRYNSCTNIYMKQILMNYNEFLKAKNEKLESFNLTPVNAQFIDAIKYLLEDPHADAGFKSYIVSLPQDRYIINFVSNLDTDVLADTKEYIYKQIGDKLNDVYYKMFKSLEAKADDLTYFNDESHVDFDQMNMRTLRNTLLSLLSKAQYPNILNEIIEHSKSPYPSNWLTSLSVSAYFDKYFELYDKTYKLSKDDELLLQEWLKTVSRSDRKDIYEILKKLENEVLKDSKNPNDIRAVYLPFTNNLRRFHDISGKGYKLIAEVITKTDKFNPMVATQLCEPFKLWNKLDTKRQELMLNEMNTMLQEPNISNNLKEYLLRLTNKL

[4] = target: T2, Calpain-2 catalytic subunit (Sus scrofa, UniProt P43367); experiment: m-calpain protease blockers, concentration series – biochemical, fluorogenic peptide substrate, dose response (AID 1420); type: functional
T2 sequence (P43367 whole entry): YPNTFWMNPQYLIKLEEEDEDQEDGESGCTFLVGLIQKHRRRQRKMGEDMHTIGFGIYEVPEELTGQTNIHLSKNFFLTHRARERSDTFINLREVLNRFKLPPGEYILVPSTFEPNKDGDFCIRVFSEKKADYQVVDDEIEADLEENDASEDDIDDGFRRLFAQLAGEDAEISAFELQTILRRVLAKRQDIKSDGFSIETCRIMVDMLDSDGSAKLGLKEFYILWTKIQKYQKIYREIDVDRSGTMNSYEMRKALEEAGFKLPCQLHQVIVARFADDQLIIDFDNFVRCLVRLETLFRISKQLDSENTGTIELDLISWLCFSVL

[5] = HGIII-sPLA2 enzyme inhibition potency – biochemical, QFRET, IC50, dose response (AID 743457);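 also: green fluorescence rise as the enzyme cleaves BODIPY PC-A2 in liposomes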
[6] = alpha-synuclein stem-loop luciferase translation blockers – H4 neuroglioma cells, luminescence, confirmation (AID 1988); type: functional, cell-based
cells [7] = type: functional, cell-based
Streptococcus = experiment: GAS UMAA2166 growth inhibition – luminescence, BacTiterGlo, counter-screen for streptokinase expression inhibitor project, dose response (AID 1915); type: functional, organism-based;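 also: potency for reduction of bacterial viability or growth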
BJ [8] = experiment: cells; type: functional, cell-based; conditions: Homo sapiens
BJ [9] = experiment: BJ-TERT fibroblast viability loss – cell-based, RAS-independent, luminescence, dose response (AID 1933); type: functional; conditions: Homo sapiens
cells [10] = type: functional, cell-based; remark: listed apart in the source
[11] = Luminescence Cell-Based Dose Response HTS to Identify Inhibitors of 5'UTR Stem-Loop Driven Prion Protein mRNA Translation in H4 Neuroglioblastoma Cells. [Related pubchem assays: 1827 (Project Summary), 1813 (Primary HTS)]; type: functional
[12] = fluconazole-exposed Candida albicans growth modulators – fluorescence, retest, confirmation (AID 2467); type: functional, cell-based
[13] = NIH3T3 cell viability loss – ATP luminescence, mouse fibroblasts, counter-screen, dose response (AID 2010); type: functional, cell-based;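 also: cells exposed to compound for about 90 hours before reading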
BJ [14] = experiment: BJ-TERT-LT-ST fibroblast viability loss – cell-based, RAS-independent, luminescence, dose response (AID 1935); type: functional; conditions: Homo sapiens;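 also: BJ fibroblasts immortalized with TERT plus LT and ST oncogenes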
[15] = luciferase reporter signal suppression in cells – H4 neuroglioma cells, luminescence, dose response (AID 1990); type: functional, cell-based
[16] = Trypanosoma cruzi growth suppression in host cells – NIH3T3 host cells, beta-gal luminescence, confirmation (AID 2044); type: functional, cell-based;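 also: intracellular parasites grown in NIH/3T3 mouse fibroblasts as host cells; luminescent beta-galactosidase reporter signal from transgenic T. cruzi replicating inside host cells; inhibitors lower the luminescence signal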
HEK293 [17] = experiment: optical interference in Abeta FP readout, dose response, artefact control for IDE activator project, biochemical, fluorescence polarization (AID 588442); type: functional, cell-based; conditions: Homo sapiens
[18] = target: T3, Apoptotic protease-activating factor 1 (Homo sapiens, UniProt O14727); type: functional
T3 sequence (O14727 whole entry): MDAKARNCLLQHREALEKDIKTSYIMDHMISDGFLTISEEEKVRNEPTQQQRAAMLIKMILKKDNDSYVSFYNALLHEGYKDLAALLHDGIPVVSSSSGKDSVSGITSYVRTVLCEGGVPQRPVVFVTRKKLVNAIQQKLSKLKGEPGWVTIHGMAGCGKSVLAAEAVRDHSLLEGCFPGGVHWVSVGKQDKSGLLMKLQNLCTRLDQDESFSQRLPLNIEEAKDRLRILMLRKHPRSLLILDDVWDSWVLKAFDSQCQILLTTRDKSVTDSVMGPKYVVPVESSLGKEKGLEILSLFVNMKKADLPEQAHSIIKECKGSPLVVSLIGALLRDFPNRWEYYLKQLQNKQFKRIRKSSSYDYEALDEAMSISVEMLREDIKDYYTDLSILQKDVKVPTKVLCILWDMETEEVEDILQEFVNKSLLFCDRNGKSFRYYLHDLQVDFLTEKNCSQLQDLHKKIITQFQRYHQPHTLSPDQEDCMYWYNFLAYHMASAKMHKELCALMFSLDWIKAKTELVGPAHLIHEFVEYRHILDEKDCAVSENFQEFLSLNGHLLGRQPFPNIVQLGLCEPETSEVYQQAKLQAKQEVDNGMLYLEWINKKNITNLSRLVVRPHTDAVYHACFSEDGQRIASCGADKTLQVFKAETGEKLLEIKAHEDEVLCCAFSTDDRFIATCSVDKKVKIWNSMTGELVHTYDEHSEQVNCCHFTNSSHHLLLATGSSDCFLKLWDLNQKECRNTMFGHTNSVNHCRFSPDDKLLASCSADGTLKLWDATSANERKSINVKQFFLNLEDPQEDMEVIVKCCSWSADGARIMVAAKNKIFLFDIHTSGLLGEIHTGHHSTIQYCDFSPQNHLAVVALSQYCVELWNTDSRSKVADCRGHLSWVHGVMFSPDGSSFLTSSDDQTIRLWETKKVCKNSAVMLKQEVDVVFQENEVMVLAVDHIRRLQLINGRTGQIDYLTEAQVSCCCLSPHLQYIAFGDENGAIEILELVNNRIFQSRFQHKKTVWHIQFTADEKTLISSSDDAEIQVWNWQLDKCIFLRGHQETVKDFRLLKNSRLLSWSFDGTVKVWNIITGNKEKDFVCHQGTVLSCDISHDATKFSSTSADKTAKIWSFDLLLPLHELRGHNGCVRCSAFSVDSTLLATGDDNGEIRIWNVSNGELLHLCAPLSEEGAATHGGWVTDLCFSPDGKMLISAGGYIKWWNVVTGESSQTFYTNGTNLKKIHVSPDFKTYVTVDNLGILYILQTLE

[19] = blockers of HIV-1 envelope-mediated cell-cell fusion – cherry-pick, dose response (AID 652057); type: functional, cell-based
Insulin-degrading enzyme [20] = target: T4, Insulin-degrading enzyme (Homo sapiens, UniProt P14735); experiment: cellular IDE activation of Abeta substrate cleavage – fluorescence polarization, HEK cells, dose response (AID 588439); type: functional, cell-based
T4 sequence (P14735 whole entry): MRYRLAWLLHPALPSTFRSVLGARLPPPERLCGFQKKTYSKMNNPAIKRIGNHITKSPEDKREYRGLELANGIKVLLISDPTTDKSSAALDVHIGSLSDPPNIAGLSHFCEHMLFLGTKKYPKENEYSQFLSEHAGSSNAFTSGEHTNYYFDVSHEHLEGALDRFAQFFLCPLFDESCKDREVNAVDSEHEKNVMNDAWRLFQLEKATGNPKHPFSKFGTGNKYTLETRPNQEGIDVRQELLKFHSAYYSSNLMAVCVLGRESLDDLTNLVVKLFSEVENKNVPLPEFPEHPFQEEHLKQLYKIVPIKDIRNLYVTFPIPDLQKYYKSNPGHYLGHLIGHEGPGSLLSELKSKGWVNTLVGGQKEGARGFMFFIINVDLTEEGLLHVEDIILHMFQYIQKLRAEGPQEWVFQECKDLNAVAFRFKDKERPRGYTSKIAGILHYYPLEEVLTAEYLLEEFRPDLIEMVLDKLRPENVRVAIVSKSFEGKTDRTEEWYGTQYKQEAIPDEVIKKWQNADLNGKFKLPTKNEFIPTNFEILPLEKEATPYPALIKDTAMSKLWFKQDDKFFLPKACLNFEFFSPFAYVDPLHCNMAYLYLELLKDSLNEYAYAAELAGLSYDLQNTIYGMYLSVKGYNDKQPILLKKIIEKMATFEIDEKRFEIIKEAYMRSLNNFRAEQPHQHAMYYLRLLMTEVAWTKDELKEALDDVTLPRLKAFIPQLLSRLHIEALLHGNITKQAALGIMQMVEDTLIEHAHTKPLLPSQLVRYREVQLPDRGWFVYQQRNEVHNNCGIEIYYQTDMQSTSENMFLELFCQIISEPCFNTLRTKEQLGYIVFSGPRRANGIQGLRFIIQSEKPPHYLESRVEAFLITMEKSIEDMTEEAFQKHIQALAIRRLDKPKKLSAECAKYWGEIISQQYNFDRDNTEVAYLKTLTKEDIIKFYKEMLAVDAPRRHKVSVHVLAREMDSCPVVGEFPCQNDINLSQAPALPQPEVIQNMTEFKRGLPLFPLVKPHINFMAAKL

[21] = viability loss in CEM21 cells – cell-based, CellTiter-Glo luminescence, cherry-picked, cytotoxicity control for viral fusion inhibitor project, dose response (AID 652042); type: functional;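 also: potency for signal decrease meaning cytotoxicity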
Insulin-degrading enzyme [22] = target: T4, Insulin-degrading enzyme; experiment: recombinant IDE activation, cell-free – biochemical, fluorescence polarization, counter-screen for IDE activator project, dose response (AID 588681)
[23] = activation of miR-122 Renilla sensor silencing – cell-based, Huh7 psiCHECK-miR122, Renilla luciferase, cherry-picked, dose response (AID 651956); type: functional;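 also: huh7 hepatoma cells stably carrying a psiCHECK-2 miR-122 sensor plasmid; renilla luciferase signal reporting endogenous miR-122 activity after 48 h compound exposure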
[24] = off-target signal loss in HeLa-CEM21 co-culture – HeLa F-luc CTL cells, cherry-picked, counter-screen for HIV-1 Env fusion inhibitor project, dose response (AID 652040); type: functional, cell-based;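 also: potency for signal decrease marking cytotoxic or nonspecific inhibition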
[25] = HIV-1 AD8 envelope cell-cell fusion blockers – cherry-pick, dose response (AID 652062); type: functional, cell-based;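 also: luciferase signal from cell-cell fusion driven by HIV-1 clade B AD8 Env; potency is for inhibitors of fusion seen as a drop in luminescence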
[26] = target: T5, Ubiquitin-conjugating enzyme E2 N (Homo sapiens, UniProt P61088); type: functional;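 also: Dose-response confirmation in a TR-FRET assay detecting UBC13-driven polyubiquitin chain formation, inhibition measured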
T5 sequence (P61088 whole entry): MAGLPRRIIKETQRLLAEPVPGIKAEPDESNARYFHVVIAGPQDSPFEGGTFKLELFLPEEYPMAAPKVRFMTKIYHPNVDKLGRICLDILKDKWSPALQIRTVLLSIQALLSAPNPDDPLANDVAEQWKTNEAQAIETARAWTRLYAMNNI

HEK293 [27] = experiment: membrane integrity loss in HEK cells – cell-based, fluorescence, cytotoxicity control for IDE activator project, dose response (AID 588440); type: functional; conditions: Homo sapiens;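 also: cytotoxicity by LDH release measuring loss of membrane integrity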
[28] = blockers of HIV-1 ZM109 envelope-driven cell-cell fusion – HeLa effector, CEM target cells, luciferase, cherry-pick, dose response (AID 652058); type: functional, cell-based;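 also: luciferase signal from HIV-1 Env mediated cell-cell fusion of effector and target cells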
[29] = general mammalian cell viability loss – activator set, cherry-pick, cytotoxicity control for miR-122 modulator project, dose response (AID 720690); type: functional, cell-based;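 also: HEK293T human cells scored for general mammalian cytotoxicity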
[30] = general mammalian cell viability loss – inhibitor set, cherry-pick, set 2, cytotoxicity control for miR-122 modulator project, dose response (AID 720697); type: functional, cell-based

## Oc1ccccc1N=Nc1ccccc1O
[1]
  EC50: 600 nM (active)
[2]
  EC50: 1.15 µM (active)
[3]
  EC50: > 160 µM (inactive)
Aminopeptidase N
  IC50: 22.1 µM (active)
[4]
  IC50: > 50 µM (not active)
[5]
  IC50: > 122 µM (inactive)
[6]
  EC50: 130 nM (active)
Cells [7]
  EC50: 12.7 µM (active)
Streptococcus
  EC50: 8.99 µM (active)
BJ [8]
  EC50: 2.3 µM (inconclusive)
BJ [9]
  EC50: 626 nM (active)
Cells [10]
  EC50: 2.06 µM (active)
[11]
  EC50: > 120 µM (not active)
[12]
  EC50: 1.38 µM (active)
[13]
  EC50: 12.1 µM (active)
BJ [14]
  EC50: 3.31 µM (inconclusive)
[15]
  EC50: 14.7 µM (active)
[16]
  EC50: 1.3 µM (active)

## FC(F)(F)c1cc(CCN2CCNC[C@@H]2CC2CCCCC2)cc(C(F)(F)F)c1
HEK293 [17]
  EC50: > 54.7 µM (inactive)
[18]
  IC50: 62.5 µM (active)
[19]
  AC50: 7.14 µM (active)
Insulin-degrading enzyme [20]
  EC50: 17.6 µM (inactive)
[21]
  AC50: 7.74 µM (active)
Insulin-degrading enzyme [22]
  EC50: > 54.7 µM (inactive)
[23]
  AC50: 23.8 µM (active)
[24]
  AC50: 11.2 µM (active)
[25]
  AC50: 17.6 µM (active)
[26]
  IC50: > 20 µM (inactive)
HEK293 [27]
  IC50: 9.68 µM (active)
[28]
  AC50: 11.5 µM (active)
[29]
  AC50: 7.47 µM (active)
[30]
  AC50: 8.59 µM (active)
